# Measured values: the NIST ThermoML archive (doi:10.1016/j.jct.2019.03.018)
# Numbers after ± are expanded uncertainties.
# Conditions: Liquid; Ebulliometric method (Recirculating still)
row,Normal boiling temperature,SMILES
1,131.89 ± 0.7 °C,CCOCC(C)O (centres undefined) [1-ethoxy-2-propanol]
2,68.57 ± 0.7 °C,CC(C)OC(C)C [diisopropyl ether]
3,96.8 ± 0.7 °C,CCCO [propan-1-ol]
4,82.18 ± 0.7 °C,CC(C)O [propan-2-ol]
